# Patent publication US20080118573A1, “Use of Heavy Metals in the Treatment of Biofilms” (priority 2004, published 2008)
# Several values for one entry are separate records, joined by “and”; a condition that tells them apart may be missing. Equal values may be shown once. Read-outs that look alike come from different tables or passages of the source. Marks after values point to notes of the source that are not given here.
# How the values were obtained:
# [1] = test system: Pseudomonas aeruginosa ATCC 27853 planktonic and biofilm bacteria; assay type: cell-based; settings: LB+B1, 24 h exposure; for MIC: P. aeruginosa ATCC 27853; for MBEC: P. aeruginosa ATCC 27853 biofilm; for MBC: P. aeruginosa ATCC 27853 planktonic
# [2] = test system: Pseudomonas aeruginosa biofilms; experiment: Metal and antibiotic combination assay; assay type: cell-based; settings: for MBC / MBEC / MIC: median of 4 replicates
# Protocol: Cells were grown to a mean density of 6.0×10^6 cfu/peg in LB+B1 media.
# • 1. […] All data are median values based on 4 replicates.
# [3] = test system: Pseudomonas aeruginosa ATCC 27853 planktonic and biofilm cultures; assay type: cell-based; settings: for MBEC: biofilm; for MBEC / MBC100 / Fold Tolerance (MBEC:MBC100): LB+B1; for MBC100: planktonic; for MIC: rich media (LB+B1), 4 replicates
# [4] = test system: Pseudomonas aeruginosa 15442; experiment: Synergy matrix assay of polycide versus metals; assay type: cell-based
# [5] = test system: Escherichia coli JM109 planktonic and biofilm bacteria; assay type: cell-based; settings: LB+B1, 24 h exposure; for MIC: E. coli JM109; for MBEC: E. coli JM109 biofilm; for MBC: E. coli JM109 planktonic
# [6] = test system: Staphylococcus aureus ATCC 29213 planktonic and biofilm bacteria; assay type: cell-based; settings: LB+B1, 24 h exposure; for MIC: S. aureus ATCC 29213; for MBEC: S. aureus ATCC 29213 biofilm; for MBC: S. aureus ATCC 29213 planktonic
# [7] = test system: Pseudomonas aeruginosa ATCC 27853 planktonic and biofilm cultures; assay type: cell-based; settings: for Fold Tolerance (MBEC:MBC100) / MBEC / MBC100: MSVP; for MBEC: biofilm; for MIC: minimal media (MSVP), did not change with exposure time, mean ± SD of 28 trials; for MBC100: planktonic
# [8] = test system: Pseudomonas aeruginosa ATCC 27853 cell populations; assay type: cell-based; settings: for eradication of the biofilm cultures with extended exposure times: 27 hours exposure
# P. aeruginosa biofilms = settings: after 100 h of exposure; cited from earlier work
# [9] = test system: Escherichia coli JM109 planktonic and biofilm bacteria; experiment: MBEC-HTP antibiotic susceptibility, E. coli; assay type: cell-based; settings: CA-MHB, 24 h exposure
# Protocol: (§1) Luria-Bertani medium was chosen for two reasons: 1) its established use in studies of metal resistance, and 2) because of the use of rich media in NCCLS testing protocols for antimicrobial resistance. Antibiotic resistance assays were performed using cation-adjusted Mueller-Hinton broth (CA-MHB, BDH Inc.) and subcultures, MBC and MBEC bacterial counts were performed using trypticase soy agar (TSA, Difco).
# (§2) The present study used a novel high throughput method for screening biofilm susceptibility to metal cations and oxyanions: the MBEC device (MBEC Bioproducts Inc., Edmonton, Alberta, Canada, http://www.mbec.ca). The MBEC high throughput (MBEC-HTP) assay system consists of a shallow trough into which a plastic lid with 96 pegs fits. This peg lid also fits over a standard 96-well microtitre plate which can subsequently be used to setup serial dilutions of antimicrobial compounds. The bottom half of the MBEC device is a trough that has shallow channels that direct flow of an inoculated suspension over the pegs on the lid.
# (§3) The inoculum was standardized to a 1.0 McFarland standard and verified by viable counts. The 1.0 McFarland standard inoculum was diluted 30-fold with growth media, which served as the growth suspension to inoculate the MBECJ device.
# (§4) P. aeruginosa was incubated for 9 h, S. aureus for 24 h and E. coli for 24 h to generate approximately equivalent biofilms of 6.0×10^6 cfu/peg. Following the incubation period, growth of biofilm and planktonic cultures in the MBECJ device were discerned and verified by viable cell counts.
# (§5) Chloramphenicol (Sigma) was prepared in 50% ethanol and treated identically to the other antibiotics. 10% ethanol was added to the growth controls for chloramphenicol assays. […] Starting with the working solutions, serial two-fold dilutions were made in the wells of a 96-well plate (the challenge plate), leaving the first well of each row as a sterility control and the second as a growth control (i.e. no antibiotic).
# [10] = test system: Pseudomonas aeruginosa ATCC 27853 planktonic and biofilm bacteria; experiment: MBEC-HTP antibiotic susceptibility, P. aeruginosa; assay type: cell-based; settings: CA-MHB, 24 h exposure
# Protocol: as §1, §2, §3, §4, §5
# [11] = antibiotic or heavy metal alone, LB+B1
compound,measurement,setting,value
"O=S(=O)([O-])[O-].[Zn+2] [Zn^2+, zinc sulphate]",MIC,[1],78 ± 31 mM
same,MBEC,[1],>125 mM
same,MBC,[1],>125 mM
same,MBC,[2]; [11],>8192 mg/L
same,MBEC,[2]; [11],>8192 µg/mL
same,MIC,[2]; [11],4096 mg/L
same,MBEC,[3]; exposure time 2 or 27 h,>125 mM
same,MBC100,[3]; exposure time 2 or 27 h,>125 mM
same,MIC,[3],78 ± 31 mM
same,synergistic effect on polycide activity,[4],did not appear to have any synergistic effect
same,MIC,[5],2.2 ± 0.7 mM
same,MBEC,[5],31 ± 0 mM
same,MBC,[5],31 ± 0 mM
same,MIC,[6],2.0 ± 0 mM
same,MBEC,[6],>125 mM
same,MBC,[6],>125 mM
same,Fold Tolerance (MBEC:MBC100),[7]; exposure time 10 h,2.3
same,Fold Tolerance (MBEC:MBC100),[7]; exposure time 27 h,1.0
same,MBEC,[7]; exposure time 2 to 8 h,>125 mM
same,MBEC,[7]; exposure time 10 h,≧256 mM
same,MBEC,[7]; exposure time 27 h,102 ± 47 mM
same,MIC,[7],9.5 mM and 9.5 ± 3.3 mM
same,MBC100,[7]; exposure time 2 to 8 h,>125 mM
same,MBC100,[7]; exposure time 10 h,109 ± 31 mM
same,MBC100,[7]; exposure time 27 h,102 ± 47 mM
same,biofilm killed,"[8]; 2 h exposure, FIG. 2 Panel A",90-99%
same,concentration tolerated by the surviving population,[8]; less than 0.1% survival of biofilm and planktonic cell populations,> 125 mM
O=C(O)c1cn(C2CC2)c2cc(N3CCNCC3)c(F)cc2c1=O [Ciprofloxacin],"MBEC in the presence of Cu^2+, times less than the MBEC for the antibiotic alone",[2]; 200 μg/ml Cu^2+,at least 16 times
same,MBC,"[2]; Pseudomonas aeruginosa, antibiotic in combination with 200 μg/ml Cu^2+, read-out: MBC",8 mg/L
same,MIC,"[2]; Pseudomonas aeruginosa, antibiotic in combination with 200 μg/ml Cu^2+, read-out: MIC",4 mg/L
same,MBC,"[2]; Pseudomonas aeruginosa, antibiotic in combination with 500 μg/ml Zn^2+, read-out: MBC",32 mg/L
same,MIC,"[2]; Pseudomonas aeruginosa, antibiotic in combination with 500 μg/ml Zn^2+, read-out: MIC",0.25 to 1 mg/L
same,MBC,"[2]; Pseudomonas aeruginosa, antibiotic or heavy metal alone, LB+B1, read-out: MBC",8 mg/L
same,MBEC,[2]; antibiotic in combination with 200 μg/ml Cu^2+,16** μg/ml
same,MBEC,[2]; antibiotic in combination with 500 μg/ml Zn^2+,>64 µg/mL
same,log10 reduction in viable cell counts of biofilms,P. aeruginosa biofilms,< 1.5 log10
NC[C@H]1O[C@H](O[C@H]2[C@H](O)[C@@H](O[C@H]3O[C@H](CO)[C@@H](O)[C@H](N)[C@H]3O)[C@H](N)C[C@@H]2N)[C@H](N)C[C@@H]1O [Tobramycin],MBEC,[9]; E. coli JM109 biofilm,16 ± 0 µg/mL
same,MIC,"[9]; Escherichia coli, E. coli JM109, read-out: MIC",4 mg/L
same,MBC,"[9]; Escherichia coli, E. coli JM109 planktonic, read-out: MBC",8 mg/L
same,MBEC,[10]; P. aeruginosa ATCC 27853 biofilm,112 ± 32 µg/mL
same,MIC,"[10]; Pseudomonas aeruginosa, ATCC27853, P. aeruginosa ATCC 27853, read-out: MIC",14 ± 4 mg/L
same,MBC,"[10]; Pseudomonas aeruginosa, ATCC27853, P. aeruginosa ATCC 27853 planktonic, read-out: MBC",28 ± 8 mg/L
same,log10 reduction in viable cell counts of biofilms,P. aeruginosa biofilms,less than 0.5 log10
"O.O.O.O.O.O=S(=O)([O-])[O-].[Cu+2] [Cu^2+, cupric sulphate]",MIC,[1],12 ± 5 mM
same,MBEC,[1],14 ± 4.0 mM
same,MBC,[1],14 ± 4.0 mM
same,MBC,[2]; [11],1024 mg/L
same,MBEC,[2]; [11],1024 µg/mL
same,MIC,[2]; [11],512 to 1024 mg/L
same,Fold Tolerance (MBEC:MBC100),[3]; exposure time 2 h,4.5
same,Fold Tolerance (MBEC:MBC100),[3]; exposure time 27 h,1.0
same,MBEC,[3]; exposure time 2 h,72 ± 40 mM
same,MBEC,[3]; exposure time 27 h,16 ± 0 mM
same,MBC100,[3]; exposure time 2 h,16 ± 0 mM
same,MBC100,[3]; exposure time 27 h,16 ± 0 mM
same,MIC,[3],12 ± 5 mM
same,effect on the efficacy of the polycide,[4]; adding as little as 16 micrograms per ml of the metal,quadruple
same,MIC,[5],4.5 ± 1.4 mM
same,MBEC,[5],13 ± 4 mM
same,MBC,[5],15 ± 3 mM
same,MIC,[6],2.0 ± 0 mM
same,MBEC,[6],2.0 ± 0 mM
same,MBC,[6],2.0 ± 0 mM
same,Fold Tolerance (MBEC:MBC100),[7]; exposure time 8 to 10 h,2.0
same,Fold Tolerance (MBEC:MBC100),[7]; exposure time 4 h,2.0
same,Fold Tolerance (MBEC:MBC100),[7]; exposure time 6 h,1.7
same,Fold Tolerance (MBEC:MBC100),[7]; exposure time 27 h,1.1
same,MBEC,[7]; exposure time 8 to 10 h,32 ± 0 mM
same,MBEC,[7]; exposure time 2 h,≧258 mM
same,MBEC,[7]; exposure time 4 h,64 ± 45 mM
same,MBEC,[7]; exposure time 6 h,36 ± 20 mM
same,MBEC,[7]; exposure time 27 h,21 ± 11 mM
same,MIC,[7],3.8 ± 1.9 mM
same,MBC100,[7]; exposure time 8 to 10 h,16 ± 0 mM
same,MBC100,[7]; exposure time 2 h,20 ± 8 mM
same,MBC100,[7]; exposure time 4 h,32 ± 0 mM
same,MBC100,[7]; exposure time 6 h,21 ± 14 mM
same,MBC100,[7]; exposure time 27 h,19 ± 11 mM
same,eradication of the biofilm cultures with extended exposure times,[8],complete eradication
"[Cl-].[Cl-].[Co+2] [Co^2+, cobalt (II) chloride]",Fold Tolerance (MBEC:MBC100),[3]; exposure time 2 h,2.7
same,Fold Tolerance (MBEC:MBC100),[3]; exposure time 27 h,2.0
same,MBEC,[3]; exposure time 2 h,≧280 mM
same,MBEC,[3]; exposure time 27 h,≧280 mM
same,MBC100,[3]; exposure time 2 h,104 ± 40 mM
same,MBC100,[3]; exposure time 27 h,140 ± 0 mM
same,MIC,[3],7.6 ± 2.2 mM
same,Fold Tolerance (MBEC:MBC100),[7]; exposure time 2 to 6 h,2.0
same,Fold Tolerance (MBEC:MBC100),[7]; exposure time 2 h,at least 2
same,Fold Tolerance (MBEC:MBC100),[7]; exposure time 8 h,1.3
same,Fold Tolerance (MBEC:MBC100),[7]; exposure time 10 h,1.2
same,Fold Tolerance (MBEC:MBC100),[7]; exposure time 27 h,1.0
same,MBEC,[7]; exposure time 2 to 6 h,≧278 mM
same,MBEC,[7]; exposure time 8 h,139 ± 0 mM
same,MBEC,[7]; exposure time 10 h,209 ± 80 mM
same,MBEC,[7]; exposure time 27 h,116 ± 36 mM
same,MIC,[7],2.0 ± 0.8 mM
same,MBC100,[7]; exposure time 2 to 6 h,139 ± 0 mM
same,MBC100,[7]; exposure time 8 h,104 ± 40 mM
same,MBC100,[7]; exposure time 10 h,174 ± 70 mM
same,MBC100,[7]; exposure time 27 h,114 ± 44 mM
same,eradication of the biofilm cultures with extended exposure times,[8],complete eradication
lead nitrate [Pb^2+],Fold Tolerance (MBEC:MBC100),[3]; exposure time 27 h,0.7
same,MBEC,[3]; exposure time 2 h,>40 mM
same,MBEC,[3]; exposure time 27 h,59 ± 23 mM
same,MBC100,[3]; exposure time 2 h,>40 mM
same,MIC,[3],12 ± 5 mM
same,Fold Tolerance (MBEC:MBC100),[7]; exposure time 2 to 4 h,4.0
same,Fold Tolerance (MBEC:MBC100),[7]; exposure time 6 h,3.0
same,Fold Tolerance (MBEC:MBC100),[7]; exposure time 8 h,4.9
same,Fold Tolerance (MBEC:MBC100),[7]; exposure time 10 h,3.0
same,Fold Tolerance (MBEC:MBC100),[7]; exposure time 27 h,1.6
same,MBEC,[7]; exposure time 2 to 4 h,≧79 mM
same,MBEC,[7]; exposure time 6 h,≧79 mM
same,MBEC,[7]; exposure time 8 h,59 ± 23 mM
same,MBEC,[7]; exposure time 10 h,59 ± 23 mM
same,MBEC,[7]; exposure time 27 h,26 ± 15 mM
same,MIC,[7],1.2 ± 0 mM
same,MBC100,[7]; exposure time 2 to 4 h,20 ± 0 mM
same,MBC100,[7]; exposure time 6 h,30 ± 11 mM
same,MBC100,[7]; exposure time 8 h,12 ± 5 mM
same,MBC100,[7]; exposure time 10 h,20 ± 0 mM
same,MBC100,[7]; exposure time 27 h,16 ± 6 mM
same,eradication of the biofilm cultures with extended exposure times,[8],complete eradication
